Results from US20250213584A1, “ERCC1-XPF COMPLEX INHIBITOR COMPOUNDS AND THE USE THEREOF IN THE TREATMENT OF CANCER” (FUNDAÇÃO D. ANNA DE SOMMER CHAMPALIMAUD E DR. CARLOS MONTEZ …, priority 2023, published 2025).

How the values were obtained:
[1] = target: T1, ERCC1-XPF (Homo sapiens, UniProt Q92889); conditions: literature; cited from earlier work
T1 sequence (Q92889 1-916): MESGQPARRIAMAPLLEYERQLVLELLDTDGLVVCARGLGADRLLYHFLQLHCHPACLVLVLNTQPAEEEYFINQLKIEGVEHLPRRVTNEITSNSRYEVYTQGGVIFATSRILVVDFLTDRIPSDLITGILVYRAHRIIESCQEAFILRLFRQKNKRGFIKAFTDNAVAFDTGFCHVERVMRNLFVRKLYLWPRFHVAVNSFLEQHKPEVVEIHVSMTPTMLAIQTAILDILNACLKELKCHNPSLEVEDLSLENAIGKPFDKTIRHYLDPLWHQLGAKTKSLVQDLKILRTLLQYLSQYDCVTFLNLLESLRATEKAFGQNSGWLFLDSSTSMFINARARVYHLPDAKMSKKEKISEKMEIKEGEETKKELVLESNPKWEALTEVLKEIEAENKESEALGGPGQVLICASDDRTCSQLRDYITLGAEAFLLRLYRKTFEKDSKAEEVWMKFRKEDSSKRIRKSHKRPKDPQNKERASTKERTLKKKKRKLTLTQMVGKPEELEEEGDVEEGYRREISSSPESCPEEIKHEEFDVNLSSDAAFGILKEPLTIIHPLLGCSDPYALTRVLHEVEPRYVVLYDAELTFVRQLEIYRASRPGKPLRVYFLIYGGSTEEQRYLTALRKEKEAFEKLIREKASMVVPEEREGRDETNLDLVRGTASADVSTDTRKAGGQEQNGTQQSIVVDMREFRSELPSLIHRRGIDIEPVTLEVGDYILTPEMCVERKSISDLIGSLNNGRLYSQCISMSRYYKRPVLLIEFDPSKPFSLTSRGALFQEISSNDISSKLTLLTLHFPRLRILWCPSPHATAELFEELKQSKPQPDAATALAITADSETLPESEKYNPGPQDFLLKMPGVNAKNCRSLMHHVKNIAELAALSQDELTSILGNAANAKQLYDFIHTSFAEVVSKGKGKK

[2] = tested on: H1299 cells; experiment: Crystal violet (CV) staining assay, cisplatin cytotoxicity; type: cell-based, human; conditions: 72-h incubation
Procedure: To evaluate the cisplatin cytotoxicity effect in the selected H1299 cell line (highest ERCC1 expression), a concentration-response profile was established resorting to two mechanistically different cell viability assays, the CV staining and the MTS reduction assays (FIG. 9). The IC50 values for cisplatin were also calculated for a 72-h incubation period based on its dose-response profile. The cytotoxicity of cisplatin in H1299 cells was evaluated according to a previously described crystal violet (CV) staining protocol. This assay allows the colorimetric determination of adherent cells by staining their nucleus. First, cells were inoculated at a density of approximately 3×10^3 cells/well in 200 μL of complete culture medium in 96-well plates. After adherence (24 h), culture medium was renewed, and the cells were incubated with a range of 1-30 μM of cisplatin for another 72 h. After incubation, cells were washed with warm PBS to remove non-adherent cells (non-viable cells). The adherent cells were then fixated with ice-cold 96% ethanol for 10 min and stained with 0.1% crystal violet in 10% ethanol for 5 min. […] Absorbance was measured at 595 nm (OD595) using a SPECTROstar OMEGA microplate reader. […] The IC50 values were calculated based on the obtained concentration-response curves using GraphPad Prism® 9.0 (GraphPad Software, Inc., La Jolla, CA, USA).

[3] = tested on: H1299 cells; experiment: MTS reduction assay, cisplatin cytotoxicity; type: cell-based, human
Procedure: To evaluate the cisplatin cytotoxicity effect in the selected H1299 cell line (highest ERCC1 expression), a concentration-response profile was established resorting to two mechanistically different cell viability assays, the CV staining and the MTS reduction assays (FIG. 9). The IC50 values for cisplatin were also calculated for a 72-h incubation period based on its dose-response profile. The 3-(4,5-dimethylthiazol-2-yl)-5-(3-carboxymethoxyphenyl)-2-(4-sulfophenyl)-2H-tetrazolium salt (MTS) reduction assay was carried out as a confirmatory assay of cell viability. This methodology is commonly used in in vitro toxicology and is based on the enzymatic reduction of a tetrazolium salt in viable cells by mitochondrial enzymes (NAD-dependent dehydrogenase) with the formation of a colored formazan product. […] H1299 cells were incubated for 2 h30 with the MTS reagent and the absorbance was measured at 490 nm and 690 nm (reference wavelength) using a SPECTROstar OMEGA microplate reader. Absorbance values presented by vehicle-treated control cells corresponded to 100% of cell viability. […] The IC50 was also calculated based on the concentration-response curve using GraphPad Prism® 9.0.

Row | Compound | disruption of ERCC1-XPF interaction [1] | IC50 [2] | IC50 ([3]; 72-h incubation) | cell death ([3]; cisplatin alone at 1 μM, 72 h)
1 | COc1ccc2nc3cc(Cl)ccc3c(Nc3ccc(O)c(CN4CCN(C)CC4)c3)c2c1 [F06] | ability to disrupt the interaction between ERCC1 and XPF |  |  | 
2 | N.N.[Cl][Pt][Cl] [cisplatin] |  | 3 µM | 3.7 µM | 10-15%
